From patent US20090312411A1, “PREVENTING OR REDUCING RISK OF MISCARRIAGES” (New York Society for the Raptured and Crippled Maintaining …, priority 2008, published 2009)

Key:
[1] = test system: murine model of antiphospholipid syndrome (APS); experiment: Fetal resorption in murine model of APS (aPL-treated pregnant mice); assay type: in vivo; details: uterus from a mouse treated with aPL+simvastatin, day 15, FIG. 3
Method: Protocol. […] The stock solution was diluted to the appropriate concentration in sterile PBS.
Protocol. Pregnant C57BL/6 mice were treated with IgG (10 mg i.p.) from a healthy non-autoimmune individual (NH-IgG), or different patients with APS (aPL-IgG) on days 8 and 12 of pregnancy. Mice were sacrificed on day 15 of pregnancy, uteri were dissected, fetuses were weighed, and frequency of fetal resorption calculated (number of resorptions/number of fetuses+number of resorptions).
Protocol. Pregnant mice were treated with pravastatin (0.2 μg/g bw=5 μg/mouse, i.p 18 hours prior to aPL or NHIgG injections on days 8 and 12). Pravastatin (Sigma Chemical, St Louis, Mo.) was dissolved in EtOH at a concentration of 10 mg/mL and diluted with NaCl 0.9% in a ratio of 1:1000 to yield a final concentration of 10 μg pravastatin per 1 mL carrier. The NaCl 0.9%-based carrier solution for the placebo group was prepared accordingly to include EtOH only (i.e., without pravastatin) at a concentration of 1:1000.

TF [2] = experiment: TF on peripheral blood neutrophils, two-color FACS; assay type: in vivo, mouse; details: flow cytometry
Method: (§1) Protocol. To study the presence of TF on peripheral blood neutrophils, two-color FACS analysis was performed. For this purpose heparinized whole mouse blood was stained with FITC-labeled anti-mouse Ly-6G (Gr-1) for FL1 (BD Biosciences Pharmingen, CA) to identify neutrophils and biotinylated rat anti-mTF antibody 1H1 and streptavidin-PerCP (BD Biosciences Pharmingen, CA) as the FL3 fluorochrome. Red cells were lyzed with ACK buffer. Preparations were then incubated with SA-PerCP and analyzed by FACS using a FACscan (BD Biosciences, CA).

neutrophils [3] = experiment: Respiratory burst activity (ROS) in neutrophils, DHR flow cytometry; assay type: in vivo, mouse
Method: Respiratory burst activity in neutrophils. Intracellular reactive oxygen (ROS) production was assessed with dihydrorhodamine 123 (DHR, Sigma Chemical, St Louis, Mo.) by flow cytometry. This primarily non-fluorescent dye becomes fluorescent upon oxidation to rhodamine by ROS produced during the respiratory burst. DHR (10 μmol/L) was added to heparanized whole blood, and this mixture was incubated at 37° C. for 45 min. Red cells were lysed as described above and reactive-oxygen production was analyzed by […] in FL1.

neutrophils [4] = experiment: Phagocytosis assay, latex beads, flow cytometry; assay type: in vivo, mouse
Method: Phagocytosis assay. Heparanized whole blood was incubated (1 h, 37° C., 5% CO2) with 1 μm of fluorescent yellow-green latex beads (Sigma-Aldrich) (ratio phagocyte/target 1:25) that had been preopsonized with normal mouse serum for 1 h. Internalization of beads was determined by flow cytometry using a FACSCalibur (BD Biosciences) flow cytometer.

PAR-2 = PAR-2 on peripheral blood neutrophils, two-color FACS; assay type: in vivo, mouse
Method: as §1, with “Protocol. […] expression on mouse neutrophils.” for “Protocol.”, “PAR-2” for “TF”, “anti-PAR-2” for “rat anti-mTF”, “(Santa Cruz Biotechnology, Inc, Santa Cruz, Calif.)” for “1H1”

SM9-1 trophoblast cells [5] = experiment: SM9-1 trophoblast cell proliferation, light microscopy; assay type: cell-based, mouse; details: SM9-1 cells incubated with sFlt-1 or monocyte supernatants, 72 hours; VEGF 500 pg/ml; pravastatin 5 μg/ml 3 hours prior
Method: (§2) Protocol. SM9-1 trophoblast cells, derived from a gestational day 9 Swiss-Webster mouse placenta (SM9-1) (Bowen et al., Biol Reprod 60:428-434.), were incubated with the supernatants from monocytes incubated with C5a containing high levels of sFlt-1 (Girardi et al., 2006, J Exp Med 203:2165-2175). Some SM9-1 cells were incubated in the presence of increasing amounts of mouse sFlt-1 (R&D Systems) (1000, 2000, 4000 and 8000 pg/ml). After 72 hours, cell proliferation was evaluated by light microscopy. Some SM9-1 cells were incubated with pravastatin (5 μg/ml) for 3 hours prior to incubation with sFlt-1. Mouse VEGF (500 pg/ml) (R&D systems) was added to some SM9-1 incubated with sFlt-1 or monocytes supernatants. Immunohistochemical identification of TF with 1H1 and superoxide production by DHE was performed on the SM9-1 cells after 72 hours of culture.
(§3) Protocol. SM9-1 trophoblast cells were prepared as described in Example 21. Isolated SM9-1 cells were incubated in the presence of increasing amounts of mouse sFlt-1 (R&D Systems) (1000, 2000, 4000 and 8000 pg/ml). After 72 hours, cell proliferation was evaluated by light microscopy. SM9-1 cells were also incubated with pravastatin (5 μg/ml) for 3 hours prior to incubation with sFlt-1. Immunohistochemical identification of TF with 1H1 and superoxide production by DHE was performed on the SM9-1 cells after 72 hours of culture as described above.

SM9-1 trophoblast cells [6] = experiment: SM9-1 trophoblast superoxide production by DHE; assay type: cell-based, mouse; details: SM9-1 cells incubated with sFlt-1 or monocyte supernatants, 72 hours; VEGF 500 pg/ml; pravastatin 5 μg/ml 3 hours prior
Method: as §2, §3

TF [7] = experiment: SM9-1 trophoblast TF immunohistochemistry with 1H1; assay type: cell-based, mouse; details: SM9-1 cells incubated with sFlt-1 or monocyte supernatants, 72 hours; VEGF 500 pg/ml; pravastatin 5 μg/ml 3 hours prior
Method: as §2, §3

monocytes = experiment: sFlt-1 release by monocytes in vitro (ELISA); assay type: cell-based, mouse; details: 10 nM C5a for 4 h; pravastatin 5 μg/ml for 3 hours prior to C5a
Method: Protocol. Mice with a selective deletion of the TF gene in myeloid cells (TF^floxed/floxed/LysM-Cre mice) (Redecha et al., supra), were used for isolation of monocytes to study sVEGFR-1 production in vitro. Blockade of TF was carried out as in Example 17 by i.p. injections of anti-mTF antibody 1H1.
Protocol. Splenocytes were prepared from non pregnant CBA/J female mice and incubated for 4 h in culture medium supplemented with 10% inactivated fetal bovine serum (FBS). Non adherent cells were removed and adherent cells (>95% peroxidase-positive) were incubated in culture medium with the addition of 10 nM mouse recombinant C5a. A group of adherent monocytes was treated for 3 hours with pravastatin (5 μg/ml) prior to incubation with C5a. After 4 h of incubation with C5a, culture supernatants were collected and analyzed for sVEGFR-1 by ELISA (R&D Systems).

Molecule: CCC(C)(C)C(=O)O[C@H]1C[C@@H](C)C=C2C=C[C@H](C)[C@H](CC[C@@H]3C[C@@H](O)CC(=O)O3)[C@H]21 [Simvastatin, simvastatin]
- viable fetuses in uterus [1]: 7
- TF (TF [2]; aPL + Simvastatin): 10 ± 5.7 % of positive cells
- TF (TF [2]; treatment given alone): 6.6 ± 2.2 % of positive cells
- ROS (neutrophils [3]; aPL + Simvastatin): 10.4 ± 5.4 % of positive cells
- ROS (neutrophils [3]; treatment given alone): 10.4 ± 4.5 % of positive cells
- Phagocytosis (neutrophils [4]; aPL + Simvastatin): 16.2 ± 2.9 % of positive cells
- Phagocytosis (neutrophils [4]; treatment given alone): 18.7 ± 1.0 % of positive cells
- PAR-2 (number of PAR-2 positive cells) (PAR-2; aPL + simvastatin): 7.4 ± 3.9
- PAR-2 (number of PAR-2 positive cells) (PAR-2; treatment given alone): 6.9 ± 2.3

Molecule: VEGF
- cell proliferation / cell growth (SM9-1 trophoblast cells [5]): restored cell proliferation
- superoxide production / oxidative damage (DHE) (SM9-1 trophoblast cells [6]): prevented oxidative damage
- TF staining / expression (TF [7]): prevented TF expression

B1: C5a: mouse recombinant C5a, complement component used to stimulate monocytes (protein, UniProt P06684 679-755, looked up)
C5a anaphylatoxin: NLHLLRQKIEEQAAKYKHSVPKKCCYDGARVNFYETCEERVARVTIGPLCIRAFNECCTIANKIRKESPHKPVQLGR
modifications: C5a anaphylatoxin
notes: mouse recombinant C5a, complement component used to stimulate monocytes
- sFlt-1 released by monocytes (monocytes): 6749 ± 1927 pg/mL

B2: sFlt-1: soluble form of the VEGF-1 receptor, antiangiogenic molecule that sequesters VEGF (R&D Systems) (protein)
chain: YGSGSKLKVPELSLKGTQHVMQAGQTLFLKCRGEAAHSWSLPTTVSQEDKRLSITPPSACGRDNRQFCSTLTLDTAQANHTGLYTCRYLPTSTSKKKKAESSIYIFVSDAGSPFIEMHTDIPKLVHMTEGRQLIIPCRVTSPNVTVTLKKFPFDTLTPDGQRITWDSRRGFIIANATYKEIGLLNCEATVNGHLYQTNYLTHRQTNTILDVQIRPPSPVRLLHGQTLVLNCTATTELNTRVQMSWNYPGKATKRASIRQRIDRSHSHNNVFHSVLKINNVESRDKGLYTCRVKSGSSFQSFNTSVHVYEKGFISVKHRKQPVQETTAGRRSYRLSMKVKAFPSPEIVWLKDGSPATLKSARYLVHGYSLIIKDVTTEDAGDYTILLGIKQSRLFKNLTATLIVNVKPQIYEKSVSSLPSPPLYPLGSRQVLTCTVYGIPRPTITWLWHPCHHNHSKERYDFCTENEESFILDPSSNLGNRIESISQRMTVIEGTNKTVSTLVVADSQTPGIYSCRAFNKIGTVERNIKFYVTDVPNGFHVSLEKMPAEGEDLKLSCVVNKFLYRDITWILLRTVNNRTMHHSISKQKMATTQDYSITLNLVIKNVSLEDSGTYACRARNIYTGEDILRKTEVLVRDSEAPHLLQNLSDYEVSISGSTTLDCQARGVPAPQITWFKNNHKIQQEPGIILGPGNSTLFIERVTEEDEGVYRCRATNQKGAVESAAYLTVQGTSDKSNLE
- cell proliferation / cell growth (SM9-1 trophoblast cells [5]): diminished cell proliferation
- superoxide production / oxidative damage (DHE) (SM9-1 trophoblast cells [6]): increased superoxide production
- TF staining / expression (TF [7]): Increased TF staining
